Results reported in ChEMBL document CHEMBL1157444, “Sucutiniranes A and B, new cassane-type diterpenes from Bowdichia nitida” (Bioorg Med Chem Lett, 2008).
≈ marks a conversion by molar mass, not a printed value. Calls of active or inactive are those of the source. The calls are words filed in the database; no cut-off is given here.

Legend:
[1] = test system: Plasmodium falciparum; test: Antiplasmodial activity against Plasmodium falciparum 3D7 at 1 ug/mL; assay type: functional, organism-based
[2] = Cytotoxicity against human COLO201 cells; assay type: cell-based; conditions: COLO 201
[3] = test system: Plasmodium falciparum; test: Antiplasmodial activity against Plasmodium falciparum 3D7; assay type: functional, organism-based

| IC50 [3] [µg/mL] | Structure (SMILES) | Activity [1] | IC50 [2] [µg/mL] |
| --- | --- | --- | --- |
| – | CC(=O)O[C@H]1C[C@H]2[C@@H](C)C3=CC(=O)O[C@]3(O)C[C@@H]2[C@@]2(C)CCCC(C)(C)[C@H]12 [SUCUTINIRANE A] | inactive | 37.3 (≈ 99.1 µM) |
| – | CC(=O)O[C@H]1C[C@@H]([C@@H](C)C2=CC(=O)OC2)[C@H](C=O)[C@@]2(C)CCCC(C)(C)[C@H]12 | inactive | > 100 |
| – | CC(=O)O[C@H]1C[C@H]2[C@@H](C)c3ccoc3C[C@@H]2[C@@]2(C)CCCC(C)(C)[C@H]12 | inactive | 86.6 (≈ 251 µM) |
| – | CC(=O)O[C@H]1C[C@H]2[C@@H](C)C3=CC(=O)O[C@@H]3C[C@@H]2[C@@]2(C)CCCC(C)(C)[C@H]12 [12-DEOXY-SUCUTINIRANE A] | inactive | > 100 |
| – | CC(=O)O[C@H]1C[C@@H]2[C@H]([C@H](O)[C@]3(C=COC3=O)[C@@H]2C)[C@@]2(C)CCCC(C)(C)[C@H]12 | inactive | > 100 |
| 0.39 (≈ 0.969 µM) | CC(=O)O[C@H]1[C@H](OC(C)=O)[C@H]2C(C)(C)CCC[C@]2(C)[C@H]2Cc3occc3[C@H](C)[C@H]12 | – | > 100 |
